System: patients of the REDUCE-IT and earlier EPA placebo-controlled trials
Experiment: Example 3: adverse events by risk ratio, icosapent ethyl vs placebo (candidate categories; infectious disease terms of interest)
Settings: ISS

For `CC/C=C\C/C=C\C/C=C\C/C=C\C/C=C\CCCC(=O)OCC` [icosapent ethyl, eicosapentaenoic acid ethyl ester], the “AR: Cholesterol Increased (AE table)” value was 0.9%, the “AR: Chorea, Related (AE table)” value was 0.7% and the “AR: Constipation, Related (AE table)” value was 0.5%. For the same molecule, the “AR: Diarrhea, Any Severity (AE table)” value was 9.8%, the “AR: Diarrhea, Mild Severity (AE table)” value was 7.4% and the “AR: Diarrhea, Related (AE table)” value was 8.4%. For the same molecule, the “AR: Flatulence, Any Severity (AE table)” value was 1.1%, the “AR: Flatulence, Mild Severity (AE table)” value was 0.9% and the “AR: Flatulence, Related (AE table)” value was 1.1%. The “AR: Frequent Bowel Movements, Any Severity (AE table)” value was 0.2%, the “AR: Frequent Bowel Movements, Mild Severity (AE table)” value was 0.2% and the “AR: Frequent Bowel Movements, Related (AE table)” value was 0.2%. For the same molecule, the “AR: Hot Flush (AE table)” value was 0.6%, the “AR: Huntington's Chorea, Any Severity (AE table)” value was 1.0% and the “AR: Huntington's Chorea, Mild Severity (AE table)” value was 0.8%. The “AR: Menorrhagia (AE table)” value was 0.4%, the “AR: Muscle spasms, Related (AE table)” value was 0.2% and the “AR: Nasopharyngitis, Any Severity (AE table)” value was 4.3%. For the same molecule, the “AR: Nasopharyngitis, Mild Severity (AE table)” value was 3.3%, the “AR: Urine Protein Present (AE table)” value was 0.1% and the “AR: Weight loss, Related (AE table)” value was 0.3%. The “ARR: Cholesterol Increased (AE table)” value was −1.4%, the “ARR: Chorea, Related (AE table)” value was −0.5% and the “ARR: Constipation, Related (AE table)” value was −0.8%. The “ARR: Diarrhea, Any Severity (AE table)” value was −1.6%, the “ARR: Diarrhea, Mild Severity (AE table)” value was −2.2% and the “ARR: Diarrhea, Related (AE table)” value was −1.5%. The “ARR: Flatulence, Any Severity (AE table)” value was −0.8%, the “ARR: Flatulence, Mild Severity (AE table)” value was −0.8% and the “ARR: Flatulence, Related (AE table)” value was −0.8%. The “ARR: Frequent Bowel Movements, Any Severity (AE table)” value was −0.6%, the “ARR: Frequent Bowel Movements, Mild Severity (AE table)” value was −0.4% and the “ARR: Frequent Bowel Movements, Related (AE table)” value was −0.6%. For the same molecule, the “ARR: Hot Flush (AE table)” value was −0.3%, the “ARR: Huntington's Chorea, Any Severity (AE table)” value was −1.3% and the “ARR: Huntington's Chorea, Mild Severity (AE table)” value was −0.9%. The “ARR: Menorrhagia (AE table)” value was −0.6%, the “ARR: Muscle spasms, Related (AE table)” value was −0.0% and the “ARR: Nasopharyngitis, Any Severity (AE table)” value was −2.3%. The “ARR: Nasopharyngitis, Mild Severity (AE table)” value was −2.3%, the “ARR: Urine Protein Present (AE table)” value was −0.2% and the “ARR: Weight loss, Related (AE table)” value was −0.4%. The “NNT: Cholesterol Increased (AE table)” value was 69, the “NNT: Chorea, Related (AE table)” value was 187 and the “NNT: Constipation, Related (AE table)” value was 122. The “NNT: Diarrhea, Any Severity (AE table)” value was 61, the “NNT: Diarrhea, Mild Severity (AE table)” value was 45 and the “NNT: Diarrhea, Related (AE table)” value was 65. For the same molecule, the “NNT: Flatulence, Any Severity (AE table)” value was 121, the “NNT: Flatulence, Mild Severity (AE table)” value was 129 and the “NNT: Flatulence, Related (AE table)” value was 121. The “NNT: Frequent Bowel Movements, Any Severity (AE table)” value was 173, the “NNT: Frequent Bowel Movements, Mild Severity (AE table)” value was 259 and the “NNT: Frequent Bowel Movements, Related (AE table)” value was 173. The “NNT: Hot Flush (AE table)” value was 292, the “NNT: Huntington's Chorea, Any Severity (AE table)” value was 77 and the “NNT: Huntington's Chorea, Mild Severity (AE table)” value was 109. The “NNT: Menorrhagia (AE table)” value was 159, the “NNT: Muscle spasms, Related (AE table)” value was 2007 and the “NNT: Nasopharyngitis, Any Severity (AE table)” value was 43. For the same molecule, the “NNT: Nasopharyngitis, Mild Severity (AE table)” value was 43, the “NNT: Urine Protein Present (AE table)” value was 519 and the “NNT: Weight loss, Related (AE table)” value was 230. For the same molecule, the “Risk Ratio (95% CI): Cholesterol Increased (AE table)” value was 0.165 (0.036 to 0.759) 5, the “Risk Ratio (95% CI): Chorea, Related (AE table)” value was 0.445(0.107 to 1.853) 3 and the “Risk Ratio (95% CI): Constipation, Related (AE table)” value was 0.148 (0.017 to 1.265) 5. For the same molecule, the “Risk Ratio (95% CI): Diarrhea, Any Severity (AE table)” value was 0.847 (0.603 to 1.191) 1, the “Risk Ratio (95% CI): Diarrhea, Mild Severity (AE table)” value was 0.741 (0.498 to 1.103) 2 and the “Risk Ratio (95% CI): Diarrhea, Related (AE table)” value was 0.834 (0.575 to 1.210) 1. For the same molecule, the “Risk Ratio (95% CI): Flatulence, Any Severity (AE table)” value was 0.463 (0.152 to 1.408) 3, the “Risk Ratio (95% CI): Flatulence, Mild Severity (AE table)” value was 0.424 (0.125 to 1.440) 3 and the “Risk Ratio (95% CI): Flatulence, Related (AE table)” value was 0.463 (0.152 to 1.408) 3. For the same molecule, the “Risk Ratio (95% CI): Frequent Bowel Movements, Any Severity (AE table)” value was “[0 drug vs 3 PBO]”, the “Risk Ratio (95% CI): Frequent Bowel Movements, Mild Severity (AE table)” value was “[0 drug vs 2 PBO]” and the “Risk Ratio (95% CI): Frequent Bowel Movements, Related (AE table)” value was “[0 drug vs 3 PBO]”. For the same molecule, the “Risk Ratio (95% CI): Hot Flush (AE table)” value was 0.556 (0.125 to 2.474) 3, the “Risk Ratio (95% CI): Huntington's Chorea, Any Severity (AE table)” value was 0.247 (0.067 to 0.908) 4 and the “Risk Ratio (95% CI): Huntington's Chorea, Mild Severity (AE table)” value was 0.318 (0.083 to 1.223) 4. The “Risk Ratio (95% CI): Menorrhagia (AE table)” value was 0.185 (0.021 to 1.653) 5, the “Risk Ratio (95% CI): Muscle spasms, Related (AE table)” value was 0.741 (0.046 to 11.826) 2 and the “Risk Ratio (95% CI): Nasopharyngitis, Any Severity (AE table)” value was 0.588 (0.344 to 1.004) 3. For the same molecule, the “Risk Ratio (95% CI): Nasopharyngitis, Mild Severity (AE table)” value was 0.494 (0.265 to 0.921) 3, the “Risk Ratio (95% CI): Urine Protein Present (AE table)” value was “[0 drug vs 1 PBO]” and the “Risk Ratio (95% CI): Weight loss, Related (AE table)” value was 0.247 (0.026 to 2.369) 4. The ARR (Chorea, Related) was −0.5%, the NNT (Chorea, Related) was 187 and the “Risk Ratio (95% CI)” value (Chorea, Related) was 0.445 (0.107 to 1.853) 3. The ARR (Constipation, Related) was −0.8%, the NNT (Constipation, Related) was 122 and the “Risk Ratio (95% CI)” value (Constipation, Related) was 0.148 (0.017 to 1.265) 5. For the same molecule, the ARR (Cough) was 0.9%, the NNT (Cough) was −112 and the “Risk Ratio (95% CI)” value (Cough) was 1.928 (0.692 to 5.373) −3. For the same molecule, the ARR (Diarrhea, Any Severity) was −1.6%, the NNT (Diarrhea, Any Severity) was 61 and the “Risk Ratio (95% CI)” value (Diarrhea, Any Severity) was 0.847 (0.603 to 1.191) 1. The ARR (Diarrhea, Mild Severity) was −2.2%, the NNT (Diarrhea, Mild Severity) was 45 and the “Risk Ratio (95% CI)” value (Diarrhea, Mild Severity) was 0.741 (0.498 to 1.103) 2. The ARR (Diarrhea, Related) was −1.5%, the NNT (Diarrhea, Related) was 65 and the “Risk Ratio (95% CI)” value (Diarrhea, Related) was 0.834 (0.575 to 1.210) 1. The ARR (Flatulence, Any Severity) was −0.8%, the NNT (Flatulence, Any Severity) was 121 and the “Risk Ratio (95% CI)” value (Flatulence, Any Severity) was 0.463 (0.152 to 1.408) 3. It also gave an ARR (Flatulence, Mild Severity) of −0.8%.

Source: US20210308089A1, “METHODS OF TREATING AND/OR PREVENTING VIRAL INFECTIONS AND/OR DISEASES CAUSED BY VIRUSES IN A SUBJECT IN NEED THEREOF” (priority 2020, published 2021)
